This is an account of results in US20260294770A1, “FORMULATIONS OF NARINGENIN” (DEBUT BIOTECHNOLOGY, INC., priority 2023, published 2026).

The test system of one data set is HSPA1A. The experiment in a line: Downregulation of gene expression and/or activity, 1% naringenin: HSPA1A. An excerpt:
(§1) In certain embodiments, administration of a composition comprising naringenin leads to up-regulation of LCE5A, KRT77, ALOXE3, KRT1, HPGD, MUCL1, CASP14, WFDC12, KRT10, DNASE1L2, IL37, SERPINB12, HAL, UPK1A, CALML5, LCE2B, and/or MIR205. In certain embodiments, administration of a composition comprising naringenin leads to down-regulation of CCL11, CSF2, IL23A, IL11, BMP6, IL13RA2, C2CD4A, NR4A2, C2CD4B, FGF2, FARP4, GDF15, THBS1, HSPA1A, PTGS2, and/or DKK1. Tables 10 and 11 provide data for upregulation and downregulation respectively of certain genes after administration of compositions comprising 1% naringenin.
Heat shock protein family A (Hsp70) member 1A (HSPA1A) plays a role in clearing of aged cells and/or senolytic effect. In certain embodiments, the administration of compositions comprising naringenin leads to downregulation of expression and/or activity of HSPA1A. […] In certain embodiments, this may also lead to anti-aging effect for the skin. In certain embodiments, the administration of composition comprising naringenin results in at least about 2 to about 10-fold downregulation of expression and/or activity of HSPA1A. In certain embodiments, the administration of composition comprising naringenin results in at least about five (5) fold downregulation of expression and/or activity of HSPA1A.

Another data set concerns glutathione. The following applies: consumed orally; cited from earlier work.
Another data set has as its system KRT1. As to the kind of experiment: Upregulation of gene expression and/or activity, 1% naringenin: KRT1.
Source text: as §1
Keratin 1 (KRT1) plays a role in maintaining the skin strength and resiliency. Keratin 1 is produced in keratinocytes in the outer layer of the skin (the epidermis), including the skin on the palms of the hands and soles of the feet. The keratin 1 protein partners with another keratin protein, either keratin 9 or keratin 10, to form molecules called keratin intermediate filaments. These filaments assemble into strong networks that provide strength and resiliency to the skin and protect it from being damaged by friction and other everyday physical stresses. In certain embodiments, the administration of composition comprising naringenin results in upregulation of KRT1, which has a role in enhancing the strength and resiliency of the skin. […]

The test system of the next data set is KRT10. As to the kind of experiment: Upregulation of gene expression and/or activity, 1% naringenin: KRT10.
Source text: as §1
Keratin 10 (KRT10) is also involved in keratin production. Keratin is involved in increasing the barrier strength and resilience of the skin. Keratin 10 is produced in keratinocytes in the outer layer of the skin (the epidermis). In the fluid-filled space inside these cells (the cytoplasm), the keratin 10 protein partners with a similar protein, keratin 1 (produced from the KRT1 gene), to form molecules called keratin intermediate filaments. These filaments assemble into strong networks that provide strength and resiliency to the skin and protect it from being damaged by friction and other everyday physical stresses. […]

Another data set has as its system KRT77. As to the kind of experiment: Upregulation of gene expression and/or activity, 1% naringenin: KRT77.
Source text: as §1
Kertain 77 (KRT77) is involved in production of keratin. In particular, KRT77 encodes an epithelial keratin that is expressed in the skin and eccrine sweat glands. KRT77 encodes keratin 77, a member of the type II keratin family of intermediate filament proteins. Keratin 77 is also known as KRT1B, Type II cytoskeletal 1b, Type IT keratin Kb39, and cytokeratin 1B. In certain embodiments, upregulation of expression and/or activity of KRT77, results in enhanced keratin production. The increased keratin production contributes to increase in the skin barrier strength. In certain embodiments, the administration of composition comprising naringenin results in at least about 5 to about 20-fold upregulation of expression and/or activity of KRT77. […]

The conditions of data set [1]: cited from earlier work.
Another data set has as its system TNFα. As to the kind of experiment: TNFα concentration in stimulated (stressed) normal human epidermal keratinocytes (ELISA). The following applies: for TNFα concentration: LPS + Poly:IC stressed NHEK, stimulated control 202.6. Format: cell-based. An excerpt:
Normal Human Epidermal Keratinocytes (NHEK) were stressed with a cocktail of lipopolysaccharide (LPS) and Polyinosinic-polycytidylic acid sodium salt (Poly:IC), external aggressors capable of inducing an inflammatory response. Stressed cells were subsequently treated with test articles and reduction in inflammatory markers was measuring by ELISA. Tables 19 and 20, provided below, discloses data for TNFα and IL-6 concentrations, respectively, in stressed normal human epidermal keratinocytes.
A general note: In an ELISA, binding on a coated surface is turned into a signal by an enzyme label.

In the case of `O=C1C[C@@H](c2ccc(O)cc2)Oc2cc(O)cc(O)c21` [naringenin, (2S)-5,7-Dihydroxy-2-(4-hydroxyphenyl)-2,3-dihydro-4H-1-benzopyran-4-one], the “fold downregulation in expression and/or activity of HSPA1A” value in the data set on HSPA1A is listed as roughly 6 fold. Besides, the “Fold-increase (downregulation table) HSPA1A” value in the data set with HSPA1A (negative = downregulation) was −6 fold. In the data set on glutathione, the Glutathione entry is recorded as “increase”. For the same molecule, in the data set on KRT1, the “Fold-increase in expression and/or activity of KRT1” value is given as roughly 7 fold. The “Fold-increase in expression and/or activity of KRT10” value with KRT10 is roughly 6 fold. In the data set with KRT77, the “Fold-increase in expression and/or activity of KRT77” value is roughly 12 fold. The “Safety on oral ingestion” value in data set [1] was “generally considered safe for oral ingestion”. For the same molecule, the TNFα concentration was 94.3 pg/mL with TNFα (0.0001% naringenin, p-value 6.99E−07); 43.8 pg/mL in the data set with TNFα (0.0045% naringenin, p-value 0.002047); 70.3 pg/mL in the data set with TNFα (0.007% naringenin, p-value 0.002961); 104.2 pg/mL with TNFα (0.01% naringenin, p-value 0.004838). Moreover, the inhibition at 0.0001 % in the data set with TNFα (Homo sapiens, NHEK, 0.0001% naringenin, vs stimulated control, p-value 6.99E−07, read-out: TNFα % Reduction vs Treated) was 53.4%. The inhibition at 0.0045 % with TNFα (Homo sapiens, NHEK, 0.0045% naringenin, vs stimulated control, p-value 0.002047, read-out: TNFα % Reduction vs Treated) came to 78.4%. Moreover, in the data set on TNFα (Homo sapiens, NHEK, 0.007% naringenin, vs stimulated control, p-value 0.002961, read-out: TNFα % Reduction vs Treated), the inhibition at 0.007 % was 65.3%. Moreover, the inhibition at 0.01 % in the data set on TNFα (Homo sapiens, NHEK, 0.01% naringenin, vs stimulated control, p-value 0.004838, read-out: TNFα % Reduction vs Treated) was found to be 48.6%. For the same molecule, the “Reduction of TNFα (in words)” value in the data set on TNFα (stressed keratinocytes) is “to non-stressed levels”.
